Source: the NIST ThermoML archive (doi:10.1016/j.jct.2015.06.005)
± gives the expanded uncertainty stated by the source.

Test: xn = mol fraction of the nth substance listed
Conditions: 100 kPa, Liquid; for speed of sound: Frequency=3 MHz, Sing-around technique in a fixed-path interferometer; for mass density: Vibrating tube method

CCCCCCCCN1CCCC1=O [N-octyl-2-pyrrolidone] + CCCCn1cc[n+](C)c1.F[B-](F)(F)F
Conditions | mass density, 298.15 K [kg/m3] | mass density, 303.15 K [kg/m3] | mass density, 308.15 K [kg/m3] | mass density, 313.15 K [kg/m3] | speed of sound, 298.15 K [m/s] | speed of sound, 303.15 K [m/s] | speed of sound, 308.15 K [m/s] | speed of sound, 313.15 K [m/s] | speed of sound, 318.15 K [m/s]
x2 = 0 | 918.45 ± 1 | 914.8 ± 1 | 911.14 ± 1 | 907.49 ± 1 | 1450.2 ± 6.1 | 1432.6 ± 6.1 | 1415.3 ± 6.1 | 1398 ± 6.1 | 1380.9 ± 6.1
x2 = 0.1084 | 945.54 ± 1 | 941.91 ± 1 | 938.28 ± 1 | 934.64 ± 1 | 1454.9 ± 6.1 | 1438.3 ± 6.1 | 1421.6 ± 6.1 | 1405 ± 6.1 | 1388.6 ± 6.1
x2 = 0.196 | 965.52 ± 1 | 961.89 ± 1 | 958.26 ± 1 | 954.63 ± 1 | 1457.4 ± 6.1 | 1441.3 ± 6.1 | 1424.9 ± 6.1 | 1408.7 ± 6.1 | 1392.7 ± 6.1
x2 = 0.3023 | 991.51 ± 1 | 987.89 ± 1 | 984.27 ± 1 | 980.66 ± 1 | 1461.3 ± 6.1 | 1445.3 ± 6.1 | 1429.4 ± 6.1 | 1413.7 ± 6.1 | 1398.2 ± 6.1
x2 = 0.4087 | 1020.1 ± 1 | 1016.54 ± 1 | 1012.96 ± 1 | 1009.39 ± 1 | 1467.5 ± 6.1 | 1452.1 ± 6.1 | 1436.8 ± 6.1 | 1421.6 ± 6.1 | 1406.6 ± 6.1
x2 = 0.5064 | 1045.47 ± 1 | 1041.86 ± 1 | 1038.25 ± 1 | 1034.65 ± 1 | 1474 ± 6.1 | 1459.2 ± 6.1 | 1444.4 ± 6.1 | 1429.7 ± 6.1 | 1415.2 ± 6.1
x2 = 0.6027 | 1074.31 ± 1 | 1070.71 ± 1 | 1067.16 ± 1 | 1063.63 ± 1 | 1485.8 ± 6.1 | 1471.7 ± 6.1 | 1457.4 ± 6.1 | 1443.3 ± 6.1 | 1429.4 ± 6.1
x2 = 0.6981 | 1103.56 ± 1 | 1099.98 ± 1 | 1096.42 ± 1 | 1092.9 ± 1 | 1499.9 ± 6.1 | 1486 ± 6.1 | 1472.3 ± 6.1 | 1458.8 ± 6.1 | 1445.5 ± 6.1
x2 = 0.7966 | 1133.07 ± 1 | 1129.48 ± 1 | 1125.91 ± 1 | 1122.36 ± 1 | 1517.6 ± 6.1 | 1504.5 ± 6.1 | 1491.4 ± 6.1 | 1478.6 ± 6.1 | 1465.9 ± 6.1
x2 = 0.8978 | 1164.87 ± 1.1 | 1161.29 ± 1.1 | 1157.71 ± 1.1 | 1154.16 ± 1.1 | 1539.8 ± 6.1 | 1527.3 ± 6.1 | 1514.9 ± 6.1 | 1502.7 ± 6.1 | 1490.6 ± 6.1
